Values of other authors as cited in patent US20240390363A1, “GRANULES CONTAINING POSACONAZOLE” (ALFRED E. TIEFENBACHER (GMBH & CO. KG), priority 2021, published 2024).

Assays:
[1] = forms compared with form I
[2] = storage or stress conditions; form IV: aqueous suspension

| SMILES | Aqueous / water solubility [1] | Stability of the crystalline form [2] |
| --- | --- | --- |
| CC[C@@H]([C@H](C)O)n1ncn(-c2ccc(N3CCN(c4ccc(OC[C@@H]5CO[C@@](Cn6cncn6)(c6ccc(F)cc6F)C5)cc4)CC3)cc2)c1=O [Posaconazole] | low aqueous solubility | – |
| CC[C@@H]([C@H](C)O)n1ncn(-c2ccc(N3CCN(c4ccc(OC[C@@H]5CO[C@@](Cn6cncn6)(c6ccc(F)cc6F)C5)cc4)CC3)cc2)c1=O [form Y, posaconazole] | better water solubility | as stable as form I |
| CC[C@@H]([C@H](C)O)n1ncn(-c2ccc(N3CCN(c4ccc(OC[C@@H]5CO[C@@](Cn6cncn6)(c6ccc(F)cc6F)C5)cc4)CC3)cc2)c1=O [form IV, posaconazole] | better water solubility | better stability in an aqueous suspension |
